# Data taken from patent US20210267251A1, “COMPOSITIONS AND METHODS USING A NICOTINAMIDE ADENINE DINUCLEOTIDE (NAD+) PRECURSOR AND AT LEAST ONE KETONE OR KETONE PRECURSOR” (SOCIETE DES PRODUITS NESTLE S.A., priority 2018, published 2021).
# System: human iPSC-derived astrocytes
# Experiment: Oxygen consumption (mitochondrial respiration) in human iPSC-derived astrocytes, Seahorse XF96
# Assay type: cell-based
# Conditions: hiPSC-derived astrocytes; NR 0.5 mM for 24 hours; ketone bodies BHB (0.5 mM or 2 mM) or BHP for 1 h in KRBH 1 mM glucose; uncoupled with FCCP 1 μM; FIG. 6
# Procedure: Differentiated human iPSC astrocytes were obtained from Cellular Dynamics International (CDI, Madison, Wis., USA). The cells were thawed according to the manufacturer's instructions. iCell astrocytes were cultured in DMEM supplemented with 10% fetal calf serum and N2 complement. Oxygen consumption in human iPSC-derived astrocytes was measured in a Seahorse XF96 instrument (Seahorse Bioscience, North Billerica, Mass., USA). Astrocytes were seeded directly into Seahorse 96-well tissue culture plates (XF96 FluxPaks no. 102416-100; Seahorse Bioscience) at a density of 40,000 cells per well. Cells were incubated for 24 hours with 0.5 mM of Nicotinamide riboside chloride (NR) or fresh medium before experiment. Four days after seeding, the cells were washed twice in KRBH 1 mM glucose and incubated for 1 h with the ketone bodies BHB (racemic (D,L) BHB) or BHP (D BHP) at the concentration indicated. The cells were maintained at 37° C. during the experiment. Mitochondrial respiration rates were determined every 6 minutes. […] The oxygen consumption rate in hiPSC-derived astrocytes was measured as an indication of mitochondrial function, using a Seahorse instrument. Through addition of the uncoupling agent FCCP, uncoupled (=maximal) respiration was determined.
compound,measurement,value
"NC(=O)c1ccc[n+]([C@@H]2O[C@H](CO)[C@@H](O)[C@H]2O)c1 [NR, Nicotinamide riboside chloride]","maximal (uncoupled) respiration, oxygen consumption rate",Neither ketone bodies alone nor NR treatment significantly increases maximal respiration
